Measured values from PubChem BioAssay (NCI).
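Exposure lasted 48 hours, with cells grown in 96-well plates and compounds tested at five concentrations. TGI: total growth inhibition.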 Where a SMILES comes first, the peptide text is derived from it. The star is where a group is joined. Boc = CC(C)(C)OC(=O)*; OBn = c1ccc(CO*)cc1

What was measured:
Assay in all cases: growth of human tumour cells (NCI), 48 h
BT-549 breast = test system: BT-549 breast
HOP-92 NSCLC = test system: HOP-92 NSCLC
M14 melanoma = test system: M14 melanoma
MDA-MB-435 = test system: MDA-MB-435
NCI-H23 lung = test system: NCI-H23 lung
NCI/ADR-RES ovarian = test system: NCI/ADR-RES ovarian
OVCAR-8 ovarian = test system: OVCAR-8 ovarian
UO-31 renal = test system: UO-31 renal
ACHN renal = test system: ACHN renal
HCC-2998 colon = test system: HCC-2998 colon

| SMILES | TGI (BT-549 breast) | TGI (HOP-92 NSCLC) | TGI (M14 melanoma) | TGI (MDA-MB-435) | TGI (NCI-H23 lung) | TGI (NCI/ADR-RES ovarian) | TGI (OVCAR-8 ovarian) | TGI (UO-31 renal) | TGI (ACHN renal) | TGI (HCC-2998 colon) |
| --- | --- | --- | --- | --- | --- | --- | --- | --- | --- | --- |
| CC(C)CC(NC(=O)C(Cc1ccccc1)NC(=O)C(Cc1ccccc1)NC(=O)OC(C)(C)C)C(=O)OCc1ccccc1 (stereo not drawn) (Boc-Phe-Phe-Leu-OBn; configuration not given here) | > 100 µM | > 100 µM | > 100 µM | > 100 µM | > 100 µM | > 100 µM | > 100 µM | > 100 µM | – | – |
| NC(=O)C1N=NSC1NC(=O)c1ccc([N+](=O)[O-])cc1 (centres undefined) | > 100 µM | – | > 100 µM | > 100 µM | > 100 µM | > 100 µM | > 100 µM | > 100 µM | > 100 µM | > 100 µM |
| COc1ccc(N(C(=O)NCCO)c2ccccc2)cc1 | – | > 100 µM | > 100 µM | > 100 µM | > 100 µM | > 100 µM | > 100 µM | > 100 µM | > 100 µM | > 100 µM |
| Cc1ccc(C)c(COCCOCn2c(=O)[nH]c(=O)c3cc(Br)ccc32)c1 | – | > 100 µM | > 100 µM | > 100 µM | > 100 µM | > 100 µM | > 100 µM | > 100 µM | > 100 µM | > 100 µM |
| O=C1C=C2CC[C@H]3[C@@H]4CC[C@H](Oc5c6ccccc6nc6ccccc56)[C@H]4CC[C@@H]3[C@H]2CC1 | > 100 µM | 80.3 µM | > 100 µM | > 100 µM | > 100 µM | > 100 µM | > 100 µM | – | > 100 µM | – |
| C=CCN1C[C@@H](C)N([C@@H](c2ccc(C(=O)N(CC)CC)cc2)c2cccc(OC)c2)C[C@@H]1C | > 100 µM | > 100 µM | > 100 µM | > 100 µM | > 100 µM | > 100 µM | > 100 µM | > 100 µM | > 100 µM | – |
| O=C(CCc1ccc(O)cc1)NCCCNC(=O)CCc1ccc(O)cc1 | > 100 µM | – | > 100 µM | > 100 µM | > 100 µM | > 100 µM | > 100 µM | > 100 µM | > 100 µM | > 100 µM |
| CS/C=C\C(=O)O[C@H]1C[C@@H]2[C@@H](O)c3occ(C)c3C[C@]2(C)[C@@H](C)C1 | – | 65.6 µM | 38.5 µM | 43.6 µM | 85.8 µM | 42.3 µM | 50.4 µM | – | 63.2 µM | 85.7 µM |
| Cc1nnc([C@@]2(C)CC[C@H]3[C@@H](CCC4=CC(=O)CC[C@@]43C)[C@@H]2CC#N)o1 | > 100 µM | > 100 µM | > 100 µM | > 100 µM | > 100 µM | > 100 µM | > 100 µM | > 100 µM | > 100 µM | – |
| Nc1[nH]c(=S)c2c(N)n[nH]c2c1C(=O)Nc1ccc(Cl)cc1 | > 100 µM | > 100 µM | > 100 µM | > 100 µM | – | > 100 µM | > 100 µM | > 100 µM | – | > 100 µM |
| CCCCS(=O)CC(CO)NC(=O)/C=C/c1c(C)[nH]c(=O)[nH]c1=O (centres undefined) | – | 101 µM | – | – | 44.6 µM | 93.2 µM | 32.4 µM | 73.3 µM | – | 30 µM |
| CCN(CC)CCNC(=O)c1nn(-c2ccc(Cl)cc2)c2c1CCc1cc(OC)ccc1-2 | 32.1 µM | 15.8 µM | 5.86 µM | 23.6 µM | 25.8 µM | – | 28.2 µM | 9.24 µM | 23.7 µM | 5.52 µM |
| Nc1ccc(OCCCc2c(-c3ccccc3)nc(N)[nH]c2=O)cc1 | > 100 µM | – | > 100 µM | > 100 µM | > 100 µM | > 100 µM | > 100 µM | > 100 µM | > 100 µM | > 100 µM |
| CC#CCCCC1(C)CCCNC1=S (centres undefined) | > 10 µM | > 10 µM | > 10 µM | > 10 µM | > 10 µM | > 10 µM | > 10 µM | > 10 µM | > 10 µM | – |
| O=[p+]1c2ccccc2[nH]c2ccccc21 | – | > 100 µM | > 100 µM | > 100 µM | > 100 µM | > 100 µM | > 100 µM | – | > 100 µM | > 100 µM |
| CC(C)(O)CCc1ccc(O)c2c(=O)c3c(O)c4c(cc3oc12)O[C@H]1OC=C[C@@]41O | > 62.5 µM | 14.8 µM | – | < 0.01 µM | 0.64 µM | 0.298 µM | 0.273 µM | 0.414 µM | < 0.01 µM | < 0.0176 µM |
| Cc1nc2ccccc2n1Cc1nnc2n1N=C(c1ccccc1)CS2 | 80.8 µM | – | > 100 µM | > 100 µM | > 100 µM | > 100 µM | – | > 100 µM | > 100 µM | 68.1 µM |
| CCCCc1c2c(nc3c1CC/C(=C\c1ccc([N+](=O)[O-])cc1)C3=O)CCCC2 | – | – | 3.34 µM | – | – | – | 3.47 µM | 4.13 µM | 3.28 µM | 3.17 µM |
| O=c1c2c3c(sc2nc2n1N=C(c1ccc([N+](=O)[O-])cc1)CS2)CCCC3 | > 100 µM | > 100 µM | – | > 100 µM | > 100 µM | > 100 µM | > 100 µM | > 100 µM | > 100 µM | > 100 µM |
| N=C(N)SCc1ccc(N=C=S)cc1 | – | 24.2 µM | – | 26 µM | 27.5 µM | 43 µM | 31.6 µM | 25 µM | 26.1 µM | 30.4 µM |
| COc1ccc(-c2nc3c(nc2-c2ccc(OC)cc2)N(C)S(=O)(=O)N=C3N)cc1 | – | 51.6 µM | > 100 µM | – | > 100 µM | – | > 100 µM | 53.2 µM | 80 µM | > 100 µM |
| NC(=S)N/N=C1\CCCCC1C(O)(C(F)(F)Cl)C(F)(F)Cl (centres undefined) | > 10 µM | > 10 µM | > 10 µM | > 10 µM | > 10 µM | > 10 µM | > 10 µM | – | > 10 µM | > 10 µM |
| C/C(=C1\C(=O)C(c2ccccc2)N(c2ccccc2)C1=O)c1ccc(Cl)cc1 (centres undefined) | 49.2 µM | 13.6 µM | 42.3 µM | 32.8 µM | 31.9 µM | > 100 µM | – | 45.8 µM | 45 µM | 96.1 µM |
| NC(C(=O)OC(=O)c1ccccc1)C(=O)OC(=O)c1ccccc1 | > 100 µM | – | > 100 µM | > 100 µM | > 100 µM | > 100 µM | > 100 µM | > 100 µM | > 100 µM | – |
